In patent US20250042848A1, “DEUTERATED FUNCTIONALIZED DERIVATIVES OF alpha-ALANINE, IN [sequence] FOR THE TREATMENT OF NEUROLOGICAL DISEASES” (UNIWERSYTET JAGIELLONSKI, priority 2021, published 2025):

Assays:
[1] = tested on: formalin-induced pain in mice; test: Formalin test (tonic pain); type: in vivo; details: for nociceptive response, first phase of the formalin test, % of the baseline (control): phase I (0-5 min); for nociceptive response, second phase of the formalin test, % of baseline (control): phase II (15-30 min); for ED50 (dose reducing the nociceptive response by 50%), formalin test: i.p.
Description: Pain was induced with a chemical agent by intraplantar injection of 2.5% formalin solution in mice in a constant volume of 20 μL. The animals were placed in separate, transparent observation chambers for a period of 30 minutes. The measured value was the total licking and biting time of the formalin-treated paw. The nociceptive response was counted in two time intervals: 0-5 minutes from formalin injection (phase I of the test-acute pain) and 15-30 minutes from its administration (phase II of the test-inflammatory pain). The observed inhibition of the nociceptive response-shortening the time of licking and biting the paw, was interpreted as an analgesic effect of the tested compound.
(§1) All tests/models were performed based on procedures described in the specialist literature: formalin test (Beirith et al. Eur. J. Pharmacol. 1998, 345, 233-245), capsaicin-induced pain model (Mogilski et al. Pharmacol. Biochem. Behav. 2015, 133, 99-110), oxaliplatin-induced neuropathic pain model-von Frey's test (Sałat et al. Pharmacol. Biochem. Behav. 2014, 122, 173-181), streptozotocin-induced diabetic neuropathic pain model-von Frey's test (Sałat et al. Neuropharmacology 2017, 125, 181-188; Tanabe et al. J. Pharmacol. Sci. 2008, 107, 213-220). The test group consisted of 8-10 animals.

[2] = tested on: capsaicin-induced pain in mice; test: Capsaicin-induced pain model; type: in vivo
Description: This test evaluated the licking and/or biting time of the hind paw after intraplantar injection of 1.6 μg of capsaicin in a constant volume of 20 μL. Observation was carried out in the period of 5 minutes after capsaicin administration. Inhibition of the nociceptive response —shortening the time of licking and biting the paw, was a measure of the antinociceptive activity of the tested compound.
as §1

[3] = tested on: psychomotor seizures induced by a 32 mA, 6 Hz stimulus in mice; test: Psychomotor seizure test 6 Hz (32 mA); type: in vivo
Description: (§2) Initial screening was performed on groups of 4 mice. The mean effective dose (ED50) in a given test and the neurotoxic dose in the rotarod test (TD50) were estimated on the basis of the results obtained on 3-4 groups of animals consisting of 6 animals.
In the psychomotor seizure test (6 Hz test), seizures were induced by a 32 mA and/or 44 mA electrical stimulus of a frequency of 6 pulses per second. An electrical pulse was generated using an electric shock generator (ECT Unit 57800; Ugo Basile, Gemonio, Italy) and delivered to the animal using corneal electrodes. Before starting the test, the eye surface was gently moistened with a solution of local anesthetic (1% lidocaine solution). The study was conducted 30 minutes/2 hours after intraperitoneal administration of the compounds at various doses. An electrical stimulus was delivered continuously for a period of 3 seconds, followed by observation of the animal for a period of 10 seconds. During the experiment, the number of animals with an episode of psychomotor convulsions was counted: motor inhibition, staggering, maintaining a sitting posture, forelimb clonus, twitching of the vibrissae and Straub-tail were observed (Leclercq, K.; Kaminski, R.M. Epilepsia 2015, 56, 310-318).
(§3) The ED50 (effective dose) and TD50 (toxic dose) values along with the corresponding 95% confidence limits were calculated based on the Litchfield and Wilcoxon method (Litchfield, J.T.; Wilcoxon, F. J. Pharmacol. Exp. Ther. 1949, 96, 99-113). To perform a statistical evaluation of the results in the scPTZ test, one-way ANOVA variance analysis followed by Dunnett's post hoc test were used. The values were considered statistically significant if p<0.05.

[4] = tested on: streptozotocin-induced mechanical allodynia in mice; test: Streptozotocin-induced diabetic neuropathic pain model, von Frey test; type: in vivo; details: three weeks after STZ
Description: The response was tested 3 weeks after the streptozotocin injection. […] Importantly, d4-(R)-1 completely abolished the symptoms of developing sensory neuropathy at all doses.
as §1

[5] = tested on: motor coordination of mice; test: Rotarod test (motor coordination, acute neurotoxicity); type: in vivo; details: in mg/kg
Description: as §2
The effect of the tested compounds on motor coordination was assessed in the rotarod test (May Commat, RR 0711 RotaRod, Turkey). The day before the actual experiment, the mice were trained on a rod rotating at 10 revolutions per minute (rpm) for 3 minutes. The experiment was performed 30 minutes and 2 hours after administration of the compounds. The motor coordination of the animals was tested at the speed of the rotating rod: 10 rpm for 60 seconds. The measure of neurotoxicity was the inability to stay on the rod for a given time (Łuszczki, J.J. et al. Eur. Neuropsychopharmacol. 2005, 6, 609-616).
as §3

[6] = tested on: human liver microsomes (HLMs); test: In vitro metabolic stability, human liver microsomes; type: in vitro ADME; details: 120-minute incubation with HLMs
Description: Metabolic stability assessment was performed using mouse (MLMs) and human (HLMs) liver microsomes purchased from Sigma-Aldrich (St. Louis, MO, USA). The detailed methodology is described in the literature (Kamiński et al. J. Med. Chem. 2015, 58, 5274-5286). The reaction mixture was prepared by mixing […] of the tested compound with mouse or human microsomes (1 mg/mL) in 10 mM TRIS-HCl buffer. The reaction mixture was pre-incubated for 5 min at 37° C. After the initial incubation, 50 μL of the NADPH Regeneration System (Promega, Madison, WI, USA) was added to initiate the reaction. The reaction mixture was then incubated for 120 min at 37° C. 200 μL of cold extra pure methanol was added to complete the reaction. The mixture was then centrifuged at 14,000 g for 15 min and the supernatants were analyzed using a Waters ACQUITY™ TQD LC/MS system with a TQ detector (Waters, Milford, USA). Each experiment was performed in triplicate.

[7] = 0.5 h after i.p. administration
[8] = 2.0 h after i.p. administration

**Q.** [2H]C1([2H])C(=O)N([C@H](C)C(=O)NCc2ccccc2)C(=O)C1([2H])[2H] [d4-(R)-1, (R)-N-benzyl-2-(2,5-dioxopyrrolidin-1-yl-3,3,4,4-d4) propanamide] was tested. Which “nociceptive response, first phase of the formalin test, % of the baseline (control)” value ([1]; i.p. 30 mg/kg) did it give?
**A.** 46.80%

**Q.** What about the “nociceptive response, second phase of the formalin test, % of baseline (control)” value (“nociceptive response … % of baseline (control)” below) ([1]; i.p. 30 mg/kg) of the same compound?
**A.** 46.04%

**Q.** What about the “nociceptive response, first phase of the formalin test, % of the baseline (control)” value ([1]; i.p. 60 mg/kg) of the same compound?
**A.** 49.85%

**Q.** And the “nociceptive response … % of baseline (control)” value ([1]; i.p. 60 mg/kg)?
**A.** 56.06%

**Q.** And the “nociceptive response, first phase of the formalin test, % of the baseline (control)” value ([1]; i.p. 90 mg/kg)?
**A.** 64.40%

**Q.** What about the “nociceptive response … % of baseline (control)” value ([1]; i.p. 90 mg/kg) of the same compound?
**A.** 43.36%

**Q.** And the “nociceptive response, first phase of the formalin test, % of the baseline (control)” value ([1]; i.p. 120 mg/kg)?
**A.** 39.68%

**Q.** And the “nociceptive response … % of baseline (control)” value ([1]; i.p. 120 mg/kg)?
**A.** 30.24%

**Q.** What about the “ED50 (dose reducing the nociceptive response by 50%), formalin test” value ([1]; phase I) of the same compound?
**A.** 97.9 mg/kg

**Q.** What about the “ED50 (dose reducing the nociceptive response by 50%), formalin test” value ([1]; phase II) of the same compound?
**A.** 71.5 mg/kg

**Q.** What about the “ED50, capsaicin test” value ([2]; i.p.) of the same compound?
**A.** 17.5 mg/kg

**Q.** And the “nociceptive response in the capsaicin test, % of the initial value (control)” value ([2]; i.p. 30 mg/kg)?
**A.** 31.77%

**Q.** And the “nociceptive response in the capsaicin test, % of the initial value (control)” value ([2]; i.p. 60 mg/kg)?
**A.** 38.72%

**Q.** And the “nociceptive response in the capsaicin test, % of the initial value (control)” value ([2]; i.p. 90 mg/kg)?
**A.** 10.90%

**Q.** And the ED50 6 Hz (32 mA) [3, 7]?
**A.** 18.6 mg/kg

**Q.** And the ED50 6 Hz (32 mA) [3, 8]?
**A.** 46.4 mg/kg

**Q.** What about the “pain threshold (von Frey)” value ([4]; 30 mg/kg i.p.) of the same compound?
**A.** 6.80 ± 0.54 g

**Q.** What about the “pain threshold, % of baseline” value ([4]; 30 mg/kg i.p.) of the same compound?
**A.** 115.4%

**Q.** And the “pain threshold (von Frey)” value ([4]; 60 mg/kg i.p.)?
**A.** 8.64 ± 0.72 g

**Q.** And the “pain threshold, % of baseline” value ([4]; 60 mg/kg i.p.)?
**A.** 146.6%

**Q.** And the “pain threshold (von Frey)” value ([4]; 90 mg/kg i.p.)?
**A.** 9.40 ± 0.61 g

**Q.** And the “pain threshold, % of baseline” value ([4]; 90 mg/kg i.p.)?
**A.** 159.6%

**Q.** And the “TD50 Rotarod” value [5, 7]?
**A.** 176.7

**Q.** What about the “TD50 Rotarod” value [5, 8] of the same compound?
**A.** >300

**Q.** What about the metabolic stability [6] of the same compound?
**A.** high metabolic stability
